Drawing on patent publication US11352350B2, “IRAK degraders and uses thereof” (Kymera Therapeutics, Inc., priority 2018, dated 2022), this text covers DC50 and IC50 for 26 molecules.

The target in one experiment is IRAK4 (Homo sapiens (Human), UniProt Q9NWZ3). Nature of the experiment: IRAK4 MSD degradation in OCI-LY10. In kind it is cell-based. As to the method:
Degradation of IRAK4 in OCI-LY10 was quantitatively measured using Meso Scale Discovery technology. […] Compounds were then added to the assay plates with a final top concentration of 1 to 10 μM in a 1:3 dilution series with total of 8 doses. The assay plates were then incubated for 4 to 24 hours at 37° C. under 5% CO2. […] To prepare MSD assay plates (Meso Scale Discovery Catalog number L15XA-3), the plates were coated with […] capture antibody (mouse Anti-IRAK4 antibody [2H9], ab119942) in PBS, at 40 μL/well. […] Cell lysates were then added to MSD assay plates and the plates were incubated at room temperature for 1 hour. The plates were then washed 3 times with 150 μL/well TBST buffer and 25 μL/well primary detection antibody (rabbit Anti-IRAK4 antibody [Y279], from Abcam. Catalog number ab32511, […]). The assay plates were then incubated at room temperature for 1 hour, washed 3 times with 150 μL/well TBST buffer and 25 µL/well secondary detection antibody, SULFO-TAG anti-rabbit antibody were added (anti rabbit antibody from Meso Scale Discovery, Catalog number R32AB-1, 1 μg/mL). The assay plates were then incubated at room temperature for 1 hour, washed 3 times with 150 μL/well TB ST buffer, and 150 μL/well MSD reading buffer (Meso Scale Discovery catalog number R92TC-2) was added. The plates were then analyzed by a MSD reader (Meso Scale Discovery, Model Quick Plex SQ 120). The data was then analyzed by software Prism 7.0 from GraphPad and the dose-depended IRAK4 degradation were fit using a three-parameter logistic equation to calculate DC50.

The subject of another experiment is OCI-LY10. Put plainly: CTG Cell Viability Assay - OCI-LY10. The class given is cell-based, human. To be noted: OCI-LY10, 4 days, read-out: CTG Cell Viability Assay - OCI-LY10: Average external-IC50. As to the method: Compound-mediated viability effect on OCI-LY10 or TMD8 was quantitatively determined using the CellTiter-Glo® Luminescent Cell Viability Assay kit from Promega (Catalog number G7570) following manufacturer's recommended procedures. […] Compounds were then added to the assay plate with final top concentration of 10 μM and 1:3 dilution series with total of 9 doses. The final DMSO concentration was normalized to 0.2%. The assay plates were incubated at 37° C. for 4 days under 5% CO2. Then the assay plate was equilibrated at room temperature for 10 minutes. […] The data was then analyzed by software Prism 7.0 from GraphPad and the dose response curves were fit using a three-parameter logistic equation to calculate IC50.

[1] abbreviates: OCI-LY10, 4 hrs, MSD, read-out: IRAK4 MSD degradation in OCI-LY10 at 4 hrs: Average external-Abs DC50.

SMILES strings stand for the structures. Where two headings read alike, the source gives them in different places. Bounds are passed on as bounds.

IRAK4, sequence (Q9NWZ3 whole entry): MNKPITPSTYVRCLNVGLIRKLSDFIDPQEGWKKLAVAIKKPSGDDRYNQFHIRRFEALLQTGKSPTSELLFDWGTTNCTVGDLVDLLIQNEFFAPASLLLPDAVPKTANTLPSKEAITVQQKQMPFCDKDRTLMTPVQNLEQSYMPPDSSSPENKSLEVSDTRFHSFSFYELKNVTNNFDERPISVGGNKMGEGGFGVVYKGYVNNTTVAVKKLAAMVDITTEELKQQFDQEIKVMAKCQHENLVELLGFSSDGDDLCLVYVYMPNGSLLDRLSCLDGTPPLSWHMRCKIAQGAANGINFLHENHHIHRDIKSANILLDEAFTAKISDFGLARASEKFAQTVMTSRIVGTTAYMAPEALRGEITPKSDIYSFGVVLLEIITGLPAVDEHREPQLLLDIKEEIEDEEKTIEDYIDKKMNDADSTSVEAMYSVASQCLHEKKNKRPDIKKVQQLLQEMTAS

The DC50 is the concentration giving 50% degradation. By IC50 is commonly meant the concentration needed to halve the response being measured. With `NC(=O)c1nn([C@H]2CC[C@H](C(=O)NCCOCCOCCNc3cccc4c3C(=O)N(C3CCC(=O)NC3=O)C4=O)CC2)cc1NC(=O)c1coc(-c2ccnc(NCC(F)(F)F)c2)n1` (single isomer, unassigned) [I-13, N-(3-carbamoyl-1-((1r,4r)-4-((2-(2-(2-((2-(2,6-dioxopiperidin-3-yl)-1,3-dioxoisoindolin-4-yl)amino)ethoxy)ethoxy)ethyl)carbamoyl)cyclohexyl)-1H-pyrazol-4-yl)-2-(2-((2,2,2-trifluoroethyl)amino)pyridin-4-yl)oxazole-4-carboxamide], at IRAK4 (setting [1]), the DC50 was more than 1000 nM. In the experiment with OCI-LY10 (Homo sapiens, OCI-Ly10, 96 h), the 50% inhibitory concentration (IC50) is more than 1000 nM.
On to `NC(=O)c1nn([C@H]2CC[C@@H](C(=O)NCCOCCOCCNc3cccc4c3C(=O)N(C3CCC(=O)NC3=O)C4=O)CC2)cc1NC(=O)c1coc(-c2ccnc(NCC(F)(F)F)c2)n1` (single isomer, unassigned) [I-14, N-(3-carbamoyl-1-((1s,4s)-4-((2-(2-(2-((2-(2,6-dioxopiperidin-3-yl)-1,3-dioxoisoindolin-4-yl)amino)ethoxy)ethoxy)ethyl)carbamoyl)cyclohexyl)-1H-pyrazol-4-yl)-2-(2-((2,2,2-trifluoroethyl)amino)pyridin-4-yl)oxazole-4-carboxamide], for which the half-maximal degradation concentration (DC50) on IRAK4 (setting [1]) lay within 10 to 100 nM. The half-inhibitory concentration (IC50) in the experiment on OCI-LY10 (Homo sapiens, OCI-Ly10, 96 h) lay in the range of 100 to 500 nM.
Regarding `CN(CCCOCCCc1cccc2c1n(C)c(=O)n2[C@H]1CCC(=O)NC1=O)C[C@H]1CC[C@H](n2cc(NC(=O)c3coc(-c4ccnc(NCC5CC5)c4)n3)c(C(F)F)n2)CC1` (single isomer, unassigned) [I-306], the 50% degradation concentration (DC50) on IRAK4 (setting [1]) was less than 10 nM. Also, in the experiment on OCI-LY10 (Homo sapiens, OCI-Ly10, 96 h), the IC50 was more than 1000 nM.
With `CN(CCCOCCCc1cccc2c1n(C)c(=O)n2[C@@H]1CCC(=O)NC1=O)C[C@H]1CC[C@H](n2cc(NC(=O)c3coc(-c4ccnc(NCC5CC5)c4)n3)c(C(F)F)n2)CC1` (single isomer, unassigned) [I-307], the DC50 at IRAK4 (setting [1]) lay within 10 to 100 nM. Also, the IC50 with OCI-LY10 (Homo sapiens, OCI-Ly10, 96 h) is more than 1000 nM.
As to `CN1C(=O)CCC(N2C(=O)c3cccc(NCCCOCCCS(=O)(=O)N(C)C(=O)[C@H]4CC[C@H](n5cc(NC(=O)c6cnn7ccc(N8C[C@H]9C[C@@H]8CO9)nc67)c(C(F)F)n5)CC4)c3C2=O)C1=O` (stereo in doubt) [I-490, N-[3-(difluoromethyl)-1-[4-[methyl-[3-[3-[[2-(1-methyl-2,6-dioxo-3-piperidyl)-1,3-dioxo-isoindolin-4-yl]amino]propoxy]propylsulfonyl]carbamoyl]cyclohexyl]pyrazol-4-yl]-5-(2-oxa-5-azabicyclo [2.2.1]heptan-5-yl)pyrazolo [1,5-a]pyrimidine-3-carboxamide], the 50% degradation concentration (DC50) at IRAK4 (OCI-LY10, 4 hrs, read-out: IRAK4 MSD degradation in OCI-LY10 at 4 hrs: DC50) is 100 to 1000 nM; at IRAK4 (OCI-LY10, 24 hrs, read-out: IRAK4 MSD degradation in OCI-LY10 at 24 hrs: DC50), more than 1000 nM. In the experiment on OCI-LY10 (Homo sapiens, OCI-Ly10, 96 h), the half-maximal inhibitory concentration (IC50) is more than 1000 nM.
As for `CN(C[C@@H]1CN(CCNCc2ccc3c(c2)n(C)c(=O)n3C2CCC(=O)NC2=O)CCO1)C(=O)[C@H]1CC[C@H](n2cc(NC(=O)c3coc(-c4ccnc(NCC5CC5)c4)n3)c(C(F)F)n2)CC1` (some centres unmarked) [I-106], the half-maximal inhibitory concentration (IC50) in the experiment on OCI-LY10 (Homo sapiens, OCI-Ly10, 96 h) was more than 1000 nM.
Turning to `CN(C[C@@H]1CN(CCNCc2ccc3c(c2)n(C)c(=O)n3C2CCC(=O)NC2=O)CCO1)C[C@H]1CC[C@H](n2cc(NC(=O)c3coc(-c4ccnc(NCC5CC5)c4)n3)c(C(F)F)n2)CC1` (some centres unmarked) [I-109], the IC50 in the experiment with OCI-LY10 (Homo sapiens, OCI-Ly10, 96 h) is more than 1000 nM.
Consider `Cn1c(=O)n(C2CCC(=O)NC2=O)c2ccc(CN3CCN([C@@H]4CCN(C[C@H]5CC[C@H](n6cc(NC(=O)c7coc(-c8ccnc(NCC9CC9)c8)n7)c(C(F)F)n6)CC5)C4)CC3)cc21` (some centres unmarked) [I-110], for which the IC50 in the experiment on OCI-LY10 (Homo sapiens, OCI-Ly10, 96 h) was more than 1000 nM.
As to `Cn1c(=O)n(C2CCC(=O)NC2=O)c2ccc(C#CC3CCN(C[C@H]4CC[C@H](n5cc(NC(=O)c6coc(-c7ccnc(NCC8CC8)c7)n6)c(C(F)F)n5)CC4)CC3)cc21` (some centres unmarked) [I-111], the IC50 in the experiment on OCI-LY10 (Homo sapiens, OCI-Ly10, 96 h) was more than 1000 nM.
On the same count and under the same terms, then `CN(CC1CCC(n2cc(NC(=O)c3coc(-c4ccnc(NCC5CC5)c4)n3)c(C(F)F)n2)CC1)C[C@H]1CN(CCCc2cccc3c2n(C)c(=O)n3C2CCC(=O)NC2=O)CCO1` (some centres unmarked) [I-113], with more than 1000 nM.
For the molecule `CC1C(=O)N(C2CCC(=O)NC2=O)c2cccc(C3CCN(CCCN(C)C[C@H]4CC[C@H](n5cc(NC(=O)c6coc(-c7ccnc(NCC8CC8)c7)n6)c(C(F)F)n5)CC4)CC3)c21` (some centres unmarked) [I-114], in the experiment on OCI-LY10, the IC50 lay within 100 to 500 nM.
Consider `CN(CC[C@@H]1CN(CCCc2cccc3c2n(C)c(=O)n3C2CCC(=O)NC2=O)CCO1)C[C@H]1CC[C@H](n2cc(NC(=O)c3coc(-c4ccnc(NCC5CC5)c4)n3)c(C(F)F)n2)CC1` (some centres unmarked) [I-116], for which, in the experiment with OCI-LY10 (Homo sapiens, OCI-Ly10, 96 h), the IC50 is more than 1000 nM.
As to `CN(CC[C@H]1CN(CCCc2cccc3c2n(C)c(=O)n3C2CCC(=O)NC2=O)CCO1)C[C@H]1CC[C@H](n2cc(NC(=O)c3coc(-c4ccnc(NCC5CC5)c4)n3)c(C(F)F)n2)CC1` (some centres unmarked) [I-117], the half-inhibitory concentration (IC50) with OCI-LY10 (Homo sapiens, OCI-Ly10, 96 h) is more than 1000 nM.
As to `Cn1c(=O)n(C2CCC(=O)NC2=O)c2ccc(CCCOCC3CCN(C[C@H]4CC[C@H](n5cc(NC(=O)c6coc(-c7ccnc(NCC8CC8)c7)n6)c(C(F)F)n5)CC4)CC3)cc21` (some centres unmarked) [I-119], the IC50 in the experiment with OCI-LY10 (Homo sapiens, OCI-Ly10, 96 h) is more than 1000 nM.
`Cn1c(=O)n(C2CCC(=O)NC2=O)c2ccc(CCCOC3CN(C[C@H]4CC[C@H](n5cc(NC(=O)c6coc(-c7ccnc(NCC8CC8)c7)n6)c(C(F)F)n5)CC4)C3)cc21` (some centres unmarked) [I-121]: in the experiment with OCI-LY10 (Homo sapiens, OCI-Ly10, 96 h), the IC50 was more than 1000 nM.
Same read-out and setting: then `Cn1c(=O)n(C2CCC(=O)NC2=O)c2cccc(CCCOC3CN(C[C@H]4CC[C@H](n5cc(NC(=O)c6coc(-c7ccnc(NCC8CC8)c7)n6)c(C(F)F)n5)CC4)C3)c21` (some centres unmarked) [I-122], with more than 1000 nM; and `O=C1CCC(n2c3ccccc3c3c(CCCOC4CCN(CC5CCC(n6cc(NC(=O)c7coc(-c8ccnc(NCC9CC9)c8)n7)c(C(F)F)n6)CC5)CC4)ccnc32)C(=O)N1` (centres unmarked) [I-123], with 500 to 1000 nM; and `CN(CCOCCCc1cccc2c1n(C)c(=O)n2C1CCC(=O)NC1=O)C[C@H]1CC[C@H](n2cc(NC(=O)c3coc(-c4ccnc(NCC5CC5)c4)n3)c(C(F)F)n2)CC1` (some centres unmarked) [I-124], with more than 1000 nM.
On to `Cn1c(=O)n(C2CCC(=O)NC2=O)c2cccc(CCCOC3CCN(C[C@H]4CC[C@H](n5cc(NC(=O)c6cnn7ccc(N8CCNCC8)nc67)c(C(F)F)n5)CC4)CC3)c21` (some centres unmarked) [I-125], for which, in the experiment with OCI-LY10 (Homo sapiens, OCI-Ly10, 96 h), the 50% inhibitory concentration (IC50) is more than 1000 nM.
As for `CN(CCCOCC#Cc1ccc2c(c1)n(C)c(=O)n2C1CCC(=O)NC1=O)C[C@H]1CC[C@H](n2cc(NC(=O)c3coc(-c4ccnc(NCC5CC5)c4)n3)c(C(F)F)n2)CC1` (some centres unmarked) [I-126], in the experiment with OCI-LY10 (Homo sapiens, OCI-Ly10, 96 h), the half-maximal inhibitory concentration (IC50) is more than 1000 nM.
Turning to `CN(CCOCCCc1ccc2c(c1)n(C)c(=O)n2C1CCC(=O)NC1=O)C[C@H]1CC[C@H](n2cc(NC(=O)c3coc(-c4ccnc(NCC5CC5)c4)n3)c(C(F)F)n2)CC1` (some centres unmarked) [I-128], in the experiment with OCI-LY10 (Homo sapiens, OCI-Ly10, 96 h), the IC50 is more than 1000 nM.
Same read-out and setting: then `Cn1c(=O)n(C2CCC(=O)NC2=O)c2cccc(CCCOCC(F)CNC(=O)c3cnc(-n4ncc5cc(C#N)cnc54)cc3NC3CC3)c21` (centres unmarked) [I-137], with more than 1000 nM.
Regarding `CN1C(=O)C(C2CCC(=O)NC2=O)c2cccc(CCCOC3CCN(CC4CCC(n5cc(NC(=O)c6cnn7ccc(NC8CCCCC8O)nc67)c(C(F)F)n5)CC4)CC3)c21` (centres unmarked) [I-290], the IC50 in the experiment on OCI-LY10 was more than 1000 nM.
`Cn1c(=O)n(C2CCC(=O)NC2=O)c2cccc(-c3ccc4c(cnn4CCOC[C@H]4CC[C@H](n5cc(NC(=O)c6cnn7ccc(N8CCOCC8)nc67)c(C(F)F)n5)CC4)c3)c21` (some centres unmarked) [I-405]: the IC50 with OCI-LY10 (Homo sapiens, OCI-Ly10, 96 h) is more than 1000 nM.
Take `Cn1c(=O)n(C2CCC(=O)NC2=O)c2cccc(-c3ccc4nn(CCOC[C@H]5CC[C@H](n6cc(NC(=O)c7cnn8ccc(N9CCOCC9)nc78)c(C(F)F)n6)CC5)cc4c3)c21` (some centres unmarked) [I-406]: in the experiment with OCI-LY10 (Homo sapiens, OCI-Ly10, 96 h), the IC50 is more than 1000 nM.
As to `CN1C(=O)CCC(n2c(=O)n(C)c3c(C#CCOC4CCN(C[C@H]5CC[C@H](n6cc(NC(=O)c7cnn8ccc(N9C[C@H]%10C[C@@H]9CO%10)nc78)c(C(F)F)n6)CC5)CC4)cccc32)C1=O` (stereo partly drawn) [I-563, N-[3-(difluoromethyl)-1-[4-[[4-[3-[3-methyl-1-(1-methyl-2,6-dioxo-3-piperidyl)-2-oxo-benzimidazol-4-yl]prop-2-ynoxy]-1-piperidyl]methyl]cyclohexyl]pyrazol-4-yl]-5-[(1R,4R)-2-oxa-5-azabicyclo [2.2.1]heptan-5-yl] pyrazolo[1,5-a] pyrimidine-3-carboxamide], the 50% inhibitory concentration (IC50) in the experiment on OCI-LY10 (Homo sapiens, 96 h) is more than 1000 nM.
